Each structure is given as a SMILES string. ≈ marks a conversion by molar mass, not a printed value.

In data set [1] the target is T1, TGF-beta receptor type-1 (Homo sapiens, UniProt P36897).
T1 sequence (P36897 whole entry): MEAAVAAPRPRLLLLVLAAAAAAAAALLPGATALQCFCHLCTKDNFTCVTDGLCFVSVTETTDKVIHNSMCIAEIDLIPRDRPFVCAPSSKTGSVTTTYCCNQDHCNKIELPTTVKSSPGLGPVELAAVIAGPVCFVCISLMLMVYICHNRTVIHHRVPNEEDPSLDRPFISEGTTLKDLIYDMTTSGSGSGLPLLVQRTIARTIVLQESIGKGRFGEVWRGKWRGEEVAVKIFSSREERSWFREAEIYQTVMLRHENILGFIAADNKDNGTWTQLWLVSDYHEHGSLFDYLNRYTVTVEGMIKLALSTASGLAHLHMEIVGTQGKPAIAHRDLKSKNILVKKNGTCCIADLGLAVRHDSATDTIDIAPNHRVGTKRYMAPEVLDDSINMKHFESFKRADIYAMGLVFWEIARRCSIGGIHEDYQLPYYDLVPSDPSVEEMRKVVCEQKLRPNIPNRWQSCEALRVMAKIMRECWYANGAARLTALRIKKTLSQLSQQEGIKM
The data set is described as follows: Inhibition of ALK5-mediated […]-induced Smad2/3 phosphorylation in human A549 cells preincubated for 2 hrs before addition of […] after 1 hr by fluorescence analysis. The format is cell-based.

Data set [2] concerns the target T1, TGF-beta receptor type-1. Briefly: Inhibition of human ALK5 using GST-tagged Smad3 as substrate assessed as substrate phosphorylation after 30 mins by ELISA.
The nature of data set [3]: Solubility of the compound by HPLC analysis. It is filed as physicochemical.
Data set [4] concerns the target Vascular endothelial growth factor receptor 2 (Homo sapiens, UniProt P35968). The data set is described as follows: Inhibition of KDR.
Data set [5] concerns Mus musculus. The data set is described as follows: Inhibition of ALK5-mediated Smad2 phosphorylation in skin of C57BL/6 mouse depilation model at 3% administered topically measured after 8 hrs by Western blot analysis. The format is functional. On the technique in general: Immunoblotting shows a protein as a band on a membrane.
Data set [6] relates to Mus musculus. The data set is described as follows: Inhibition of ALK5-mediated Smad2 phosphorylation in skin of C57BL/6 mouse depilation model at 1% administered topically measured after 8 hrs by Western blot analysis. The format is functional.

Vascular endothelial growth factor receptor 2, sequence (P35968 whole entry): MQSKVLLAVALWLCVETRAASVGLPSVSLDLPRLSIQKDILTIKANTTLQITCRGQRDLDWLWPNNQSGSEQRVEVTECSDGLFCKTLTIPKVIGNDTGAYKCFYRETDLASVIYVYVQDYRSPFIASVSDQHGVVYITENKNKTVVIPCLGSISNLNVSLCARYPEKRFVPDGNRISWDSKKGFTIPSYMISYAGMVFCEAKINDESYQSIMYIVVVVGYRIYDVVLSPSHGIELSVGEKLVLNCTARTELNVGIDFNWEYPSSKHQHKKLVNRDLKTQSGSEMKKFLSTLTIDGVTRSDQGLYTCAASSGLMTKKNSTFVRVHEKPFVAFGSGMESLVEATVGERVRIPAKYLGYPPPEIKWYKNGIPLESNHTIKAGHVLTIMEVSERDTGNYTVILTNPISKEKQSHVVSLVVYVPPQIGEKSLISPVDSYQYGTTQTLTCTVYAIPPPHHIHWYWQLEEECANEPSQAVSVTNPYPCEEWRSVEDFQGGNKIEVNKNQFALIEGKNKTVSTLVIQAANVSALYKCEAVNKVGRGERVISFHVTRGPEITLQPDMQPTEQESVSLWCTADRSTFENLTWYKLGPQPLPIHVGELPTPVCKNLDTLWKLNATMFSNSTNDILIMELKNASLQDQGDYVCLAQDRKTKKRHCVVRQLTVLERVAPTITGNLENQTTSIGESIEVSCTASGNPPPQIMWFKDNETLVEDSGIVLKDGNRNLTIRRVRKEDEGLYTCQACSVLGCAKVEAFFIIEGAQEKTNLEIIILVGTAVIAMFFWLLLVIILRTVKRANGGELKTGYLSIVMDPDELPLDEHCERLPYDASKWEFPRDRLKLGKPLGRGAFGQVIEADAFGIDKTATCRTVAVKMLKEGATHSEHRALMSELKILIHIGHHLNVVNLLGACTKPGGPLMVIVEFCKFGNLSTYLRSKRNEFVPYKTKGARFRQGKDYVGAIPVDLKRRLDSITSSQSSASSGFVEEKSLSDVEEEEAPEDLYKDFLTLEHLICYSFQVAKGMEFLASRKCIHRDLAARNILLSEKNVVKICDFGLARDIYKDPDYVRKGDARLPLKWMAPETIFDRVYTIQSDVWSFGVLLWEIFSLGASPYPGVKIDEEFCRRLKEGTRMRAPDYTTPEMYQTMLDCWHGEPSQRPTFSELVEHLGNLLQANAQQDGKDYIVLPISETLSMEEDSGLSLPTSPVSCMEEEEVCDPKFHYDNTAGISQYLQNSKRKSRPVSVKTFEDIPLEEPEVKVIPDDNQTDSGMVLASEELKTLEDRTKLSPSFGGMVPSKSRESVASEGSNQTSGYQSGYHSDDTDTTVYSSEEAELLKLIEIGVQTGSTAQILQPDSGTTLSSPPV

As usually defined, the IC50 is the concentration at which inhibition is half-maximal. On to `Cc1csc(-c2nc[nH]c2-c2ccc3ncsc3c2)n1`, for which the half-inhibitory concentration (IC50) is 0.0087 µM in data set [1] and 0.0027 µM in data set [2].

The solubility is the concentration that dissolves in the medium under given conditions. A higher solubility goes with much dissolved substance. For `Cc1csc(-c2nc(C)[nH]c2-c2ccc3ncsc3c2)n1`, in data set [3], the solubility is 18.3 mg/mL (≈ 58.6 mM). In addition, the IC50 in data set [1] was 0.017 µM; in data set [2] it was 0.0058 µM.

Turning to `CCc1nc(-c2nc(C)cs2)c(-c2ccc3ncsc3c2)[nH]1`, the half-inhibitory concentration (IC50) in data set [1] was 0.035 µM; in data set [2] it was 0.009 µM.

`CCCc1nc(-c2nc(C)cs2)c(-c2ccc3ncsc3c2)[nH]1` displayed a solubility in data set [3] of 14.9 mg/mL (≈ 43.8 mM). For the same molecule, the IC50 in data set [1] was determined as 0.033 µM; in data set [2] it was 0.0081 µM.

Regarding `Cc1csc(-c2nc(C(C)C)[nH]c2-c2ccc3ncsc3c2)n1`, the IC50 in data set [1] stood at 0.048 µM; in data set [2], 0.0082 µM.

`Cc1csc(-c2nc(CC(C)C)[nH]c2-c2ccc3ncsc3c2)n1`: the half-inhibitory concentration (IC50) in data set [1] amounted to 0.043 µM; in data set [2] it was 0.009 µM.

In the case of `Cc1csc(-c2nc(C(C)(C)C)[nH]c2-c2ccc3ncsc3c2)n1`, the solubility in data set [3] stood at 3.49 mg/mL (≈ 9.84 mM). Moreover, the figures for the IC50 in data set [1] and in data set [2] were 0.068 µM and 0.014 µM, respectively.

Consider `CCCCCCc1nc(-c2nc(C)cs2)c(-c2ccc3ncsc3c2)[nH]1`, for which the 50% inhibitory concentration (IC50) in data set [1] came out at 0.12 µM; in data set [2], 0.007 µM.

Consider `Cc1csc(-c2nc(C(F)(F)F)[nH]c2-c2ccc3ncsc3c2)n1`, for which the solubility in data set [3] came out at 2.4 mg/mL (≈ 6.55 mM). In addition, the half-maximal inhibitory concentration (IC50) in data set [1] was 0.049 µM; in data set [2], 0.0058 µM.

For `Cc1csc(-c2nc(C3CC3)[nH]c2-c2ccc3ncsc3c2)n1`, the solubility in data set [3] came out at 23.6 mg/mL (≈ 69.7 mM). Besides, the IC50 in data set [1] was determined as 0.045 µM; in data set [2], 0.0088 µM.

In data set [3], `Cc1csc(-c2nc(C3CCCC3)[nH]c2-c2ccc3ncsc3c2)n1` returned a solubility of 19.8 mg/mL (≈ 54 mM). The IC50 in data set [1] was 0.04 µM; in data set [2], 0.0087 µM.

With `Cc1csc(-c2nc(C3CCCCC3)[nH]c2-c2ccc3ncsc3c2)n1`, the solubility in data set [3] was greater than 31.8 mg/mL. Moreover, the IC50 in data set [1] is 0.075 µM; in data set [2], 0.012 µM.

With `Cc1csc(-c2nc(C3CCC(=O)CC3)[nH]c2-c2ccc3ncsc3c2)n1`, the half-inhibitory concentration (IC50) in data set [1] was 0.089 µM; in data set [2], 0.023 µM.

In data set [3], `Cc1csc(-c2nc(C3CCOCC3)[nH]c2-c2ccc3ncsc3c2)n1` registered a solubility of 26.1 mg/mL (≈ 68.2 mM). Further, the IC50 was 0.099 µM in data set [1] and 0.021 µM in data set [2].

With `Cc1csc(-c2nc(C3CCNCC3)[nH]c2-c2ccc3ncsc3c2)n1`, the IC50 in data set [2] was 0.24 µM.

As to `Cc1csc(-c2[nH]c(CN3CCCC3=O)nc2-c2ccc3ncsc3c2)n1`, the values for the IC50 in data set [1] and in data set [2] were 0.13 µM and 0.026 µM, respectively.

With `CCCC(=O)N(C)Cc1nc(-c2ccc3ncsc3c2)c(-c2nc(C)cs2)[nH]1`, the results for the concentration for half-maximal inhibition (IC50) in data set [1] and in data set [2] were 0.11 µM and 0.028 µM, respectively.

In the case of `CCCCNCc1nc(-c2nc(C)cs2)c(-c2ccc3ncsc3c2)[nH]1`, the concentration for half-maximal inhibition (IC50) in data set [1] was 0.072 µM; in data set [2], 0.013 µM.

Turning to `CCCC(=O)CCc1nc(-c2nc(C)cs2)c(-c2ccc3ncsc3c2)[nH]1`, the values for the 50% inhibitory concentration (IC50) in data set [1] and in data set [2] were 0.042 µM and 0.009 µM, respectively.

Regarding `CCCCNC(=O)c1nc(-c2nc(C)cs2)c(-c2ccc3ncsc3c2)[nH]1`, the IC50 in data set [1] is 0.42 µM; in data set [2], 0.045 µM.

As to `CCNC(=O)CCc1nc(-c2nc(C)cs2)c(-c2ccc3ncsc3c2)[nH]1`, the half-maximal inhibitory concentration (IC50) in data set [1] was determined as 0.071 µM; in data set [2], 0.012 µM.

`CNC(=O)CCCc1nc(-c2nc(C)cs2)c(-c2ccc3ncsc3c2)[nH]1`: the IC50 is 0.23 µM in data set [1] and 0.037 µM in data set [2].

On to `Cc1csc(-c2nc(CCCCC(N)=O)[nH]c2-c2ccc3ncsc3c2)n1`, for which the IC50 in data set [1] worked out at 0.19 µM; in data set [2], 0.0083 µM.

As for `CCNC(=O)OCc1nc(-c2nc(C)cs2)c(-c2ccc3ncsc3c2)[nH]1`, the IC50 in data set [1] turned out to be 0.093 µM; in data set [2], 0.0072 µM.

For `CCC(=O)NCCc1nc(-c2nc(C)cs2)c(-c2ccc3ncsc3c2)[nH]1`, the results for the IC50 in data set [1] and in data set [2] were 0.13 µM and 0.025 µM, respectively.

As to `CC(=O)NCCCc1nc(-c2nc(C)cs2)c(-c2ccc3ncsc3c2)[nH]1`, the results for the IC50 in data set [1] and in data set [2] were 0.15 µM and 0.026 µM, respectively.

For the molecule `CCNC(=O)NCc1nc(-c2nc(C)cs2)c(-c2ccc3ncsc3c2)[nH]1`, the half-maximal inhibitory concentration (IC50) was found to be 0.13 µM in data set [1] and 0.011 µM in data set [2].

Turning to `CCCS(=O)(=O)NCc1nc(-c2nc(C)cs2)c(-c2ccc3ncsc3c2)[nH]1`, the results for the IC50 in data set [1] and in data set [2] were 0.15 µM and 0.017 µM, respectively.

With `CCOC(=O)NCc1nc(-c2nc(C)cs2)c(-c2ccc3ncsc3c2)[nH]1`, the concentration for half-maximal inhibition (IC50) in data set [1] stood at 0.035 µM; in data set [2], 0.0045 µM.

With `Cc1csc(-c2nc(CN3CCOC3=O)[nH]c2-c2ccc3ncsc3c2)n1`, the IC50 in data set [1] is 0.092 µM; in data set [2], 0.0081 µM.

`COC(=O)NCc1nc(-c2nc(C)cs2)c(-c2ccc3ncsc3c2)[nH]1` displayed a solubility in data set [3] of 3.93 mg/mL (≈ 10.2 mM). Also, the IC50 in data set [1] came to 0.038 µM; in data set [2] it was 0.0077 µM.

For the molecule `CCCOC(=O)NCc1nc(-c2nc(C)cs2)c(-c2ccc3ncsc3c2)[nH]1`, the solubility in data set [3] was 9.8 mg/mL (≈ 23.7 mM). Besides, the IC50 in data set [1] stood at 0.036 µM; in data set [2], 0.0073 µM.

In the case of `CCCCOC(=O)NCc1nc(-c2nc(C)cs2)c(-c2ccc3ncsc3c2)[nH]1`, the 50% inhibitory concentration (IC50) in data set [1] worked out at 0.074 µM; in data set [2] it was 0.0091 µM.

For the molecule `CCCCCOC(=O)NCc1nc(-c2nc(C)cs2)c(-c2ccc3ncsc3c2)[nH]1`, the 50% inhibitory concentration (IC50) stood at 0.14 µM in data set [1] and 0.011 µM in data set [2].

For `Cc1csc(-c2nc(CNC(=O)OC(C)C)[nH]c2-c2ccc3ncsc3c2)n1`, the solubility in data set [3] worked out at 18.2 mg/mL (≈ 44 mM). The IC50 turned out to be 0.041 µM in data set [1] and 0.0086 µM in data set [2].

On to `Cc1csc(-c2nc(CNC(=O)OCC(C)C)[nH]c2-c2ccc3ncsc3c2)n1`, for which the IC50 in data set [4] turned out to be 1.08 µM; in data set [1], 0.036 µM; in data set [2], 0.0055 µM. Moreover, the “inhibition (INH)” value in data set [5] stood at 90%; in data set [6], 59%.

In the case of `Cc1csc(-c2nc(CNC(=O)OCC(C)(C)C)[nH]c2-c2ccc3ncsc3c2)n1`, the IC50 was 0.079 µM in data set [1] and 0.0093 µM in data set [2].
